The values that follow are results of earlier work, collected in publication PMC11172375, “Preclinical Evaluation of Biodistribution and Toxicity of [^211At]PSMA-5 in Mice and Primates for the Targeted Alpha Therapy against Prostate Cancer” (International Journal of Molecular Sciences, 2024).

The test system of data set [1] is metastatic castration-resistant prostate cancer. Also on record: method as in PMID 34161051. The settings on record: patients with mCRPC previously treated with ARPI and taxane, VISION trial; cited from earlier work.
The test system is the same in data set [2]. Also on record: method as in doi:10.1200/JCO.2022.40.6_suppl.TPS211. The conditions noted are these: taxane-naïve patients with mCRPC, PSMAfore trial; cited from earlier work.
For data set [3] the following is noted: cited from earlier work.
The subject of another data set is prostate cancer. Also on record: method as in PMID 27390158, PMID 38218192, PMID 33293081, PMID 33008928, PMID 37247612. The settings on record: patients resistant to beta therapy with [177Lu]PSMA-617; cited from earlier work.
On the set-up of data set [4]: method as in PMID 27230930. The settings on record: mice treated with 1.5MBq (75MBq/kg); cited from earlier work.

Turning to `O=C([O-])CN1CCN(CC(=O)[O-])CCN(CC(=O)NCC2CCC(C(=O)N[C@@H](Cc3ccc4ccccc4c3)C(=O)NCCCC[C@H](NC(=O)N[C@@H](CCC(=O)O)C(=O)O)C(=O)O)CC2)CCN(CC(=O)[O-])CC1.[177Lu+3]` (stereo partly drawn) [[^177Lu]PSMA-617], the “overall survival compared to the standard of care” value in data set [1] is on record as “significantly extended overall survival”. The “radiographic progression-free survival compared to ARPI changes” value in data set [2] is “prolong radiographic progression-free survival”. As for `[211At-].[Na+]` [[^211At]NaAt], the “uptake in the thyroid” value in data set [3] (3 h post-administration) is recorded as 509 %ID/g. The thyroid histology entry in data set [3] (even in low-dose groups (5 MBq/kg)) was “thyroid ablation effects”. As to `O=C([O-])CC[C@H](NC(=O)N[C@@H](CCCCNC(=O)[C@H](Cc1ccc2ccccc2c1)NC(=O)C1CCC(CNC(=O)CN2CCN(CC(=O)[O-])CCN(CC(=O)[O-])CCN(CC(=O)[O-])CC2)CC1)C(=O)[O-])C(=O)[O-].[225Ac].[H+].[H+].[H+]` (stereo partly drawn) [[^225Ac]PSMA-617], in the data set on prostate cancer, the “efficacy of alpha therapy” value is given as “proven effective”. Regarding `O=C(O)CC[C@H](NC(=O)NC(CCCCNC(=O)c1ccc([211At])cc1)C(=O)O)C(=O)O` (stereo partly drawn) [^211At-6, (2S)-2-(3-(1-Carboxy-5-(4-211At-Astatobenzamido)Pentyl)Ureido)-Pentanedioic Acid], the kidney toxicity result in data set [4] is recorded as “late nephropathy with loss of the proximal tubules”.
